Assay results published in patent US20080248024A1, “THERAPEUTIC AGENT FOR CANCER, INFLAMMATION, AND AUTO-IMMUNE DISEASE CONTAINING INHIBITOR OF ZINC FINGER PROTEIN 91” (Korea Research Institute of Bioscience and Biotechnology, priority 2007, published 2008).
Entries after “also recorded” stand apart in the source; their conditions may differ. Where two headings read alike, the source gives them in different places.

Tests used:
ZFP91 promoter = ZFP91 promoter luciferase reporter assay (pGL3-ZFP91prom-LUC); type: cell-based, human
ZFP91 [1] = assay: ZFP91 expression in MCF-7 treated with NF-κB activators; type: cell-based, human; details: TNF-α 20 ng/ml, PMA 20 ng/ml, IL1-β 20 ng/ml, H2O2 1 mM, 0, 3, 6, 14, 24 hours
Protocol: To examine whether ZFP91 expression was regulated by NF-κB, the breast cancer cell line MCF-7 was treated with the NF-κB activators, TNF-α (20 ng/ml), PMA (20 ng/ml), IL1-β (20 ng/ml) and H2O2 (1 mM) for 0, 3, 6, 14, and 24 hours. After 0, 3, 6, 14, and 24 hours from the treatment, poly(A)^+ RNA was extracted, followed by Northern blotting. The probe used for Northern blotting was prepared as follows; TOPO cloning vector inserted with ZFP91 was digested with EcoRI and the insert alone was used after random prime labeling with [α-^32P]dCTP. ZFP91 expressions over the time were investigated. […] The NF-κB activators p65, IKKα, IKKβ, and NIK were expressed in MCF-7 cells. 48 hours later, ZFP91 expressions in the cells were investigated.

ZFP91 [2] = assay: ZFP91 expression after ZFP91 siRNA, Western blotting; type: cell-based, human; details: various cancer cells
Description: To investigate the effect of ZFP91 on HIF-1 activation, a human stomach cancer cell line, AGS cells and AGS cells transformed with ZFP91 were transfected with HRE dependent reporter plasmid. ZFP91 siRNA oligomers (SEQ. ID. NO: 1-NO: 4; siRNA sequences corresponding to amino terminal region ccaggtg gcattagtag tgaa, sense: r(AGG UGG CAU UAG UAG UGA A)dTdT, antisense: r(UUC ACU ACU AAU GCC ACC U)dGdG; produced by GIAGEN) were introduced into the above cell lines by using RANiFect Transfection reagent (QIAGEN, Germany).
Particularly, After 24 hours incubation of 1×10^5 cells/well distributed in a 24-well plate. siRNA oligomer (3.8 ul of SIRNA oligomer: 1 ug) was introduced into the cells with 96.2 ul of medium or EC-R buffer and 6 ul of RNAiFect reagent (Quiagen) and then the plate was kept at room temperature for 10-15 minutes. During the incubation, the medium of 24-well plate was replaced with 300 μl of fresh medium and the mixture of siRNA oligomer and RNAiFect reagent was slowly added and carefully mixed. The reaction mixture was incubated for 24 hours under normoxic condition, and then further cultured for another 24 hours in an incubator in the presence of 1% oxygen. Some of extracts of the cells proceeded to luciferase assay and HIF-1 induced luciferase activity was measured. […]

[3] = system: PTPN11, SPIN, ECT2, EWSR1, MLLT4, MAGEA4, TNFAIP3 and ZFP91; assay: RT-PCR of candidate genes regulated by kamebakaurin; type: cell-based, human; details: kamebakaurin 10 μg/ml, 5 hours, MDA-MB-231 cells
Protocol: A human breast cancer cell line MDA-MB-231 cells was treated with DMSO and kamebakaurin (10 μg/ml) respectively, followed by culture for 5 hours. The cells were washed with cold PBS three times, and then total RNA was extracted by using RNeasy Mini kits (Qiagen, Santa Clarita, Calif., USA) 5 μg of the total RNA was used for the synthesis of cDNA using Invitrogen kit Access RT-PCR Kit (Promega, Madison, Wis., U.S.A.). The ZFP91 specific primer was constructed based on the nucleotide sequence of Genebank (Accession No. NM-053023). Each candidate gene specific primer was constructed based on the informed nucleotide sequences (Table 1). PCR was performed with prepared cDNA as follows: predenaturation at 95° C. for 5 minutes, denaturation at 94° C. for 1 minute, annealing at 50° C.-60° C. for 2 minutes, polymerization at 70° C. for 1 minute, 30 cycles from denaturation to polymerization. The gene-specific PCR products proceeded to electrophoresis on 1% agarose gel, followed by EtBr staining (FIG. 1).

[4] = system: MAGEA4, TNFAIP3 and ZFP91; assay: Northern blotting of candidate genes regulated by kamebakaurin; type: cell-based, human; details: kamebakaurin 10 μg/ml, 5 hours, MDA-MB-231 cells
Protocol: MDA-MB-231 cells were treated with DMSO and kamebakaurin (10 μg/ml), followed by culture for 5 hours. The cells were washed with cold PBS three times, and poly(A)^+ RNA was extracted by using FastTrack 2.0 kit (Invitrogen). 2 μg of the extracted poly (A)^+ RNA was eletrohporesed on 1% agarose-formaldehyde gel, which was transferred onto a nylon membrane (Roche, Mannheim, Germany). To investigate the expressions of selected candidate genes, the PCR product was purified by using Wizard PCR PrepsDNA Purification Systems (Promega Corporation, Madison, Wis., U.S.A.) and then used as a probe. Each probe was labeled with [α-^32P]dCTP using Rediprime™ II random prime labeling system (Amersham Biosciences). Non-incorporated ^32P was removed by using spin column (ProbeQuant™ G-50 Micro Columns; Amersham Biosciences). The prepared cDNA was used as a probe for hybridization with the membrane. After the hybridization, the membrane was washed with 2×SSC/0.1% SDS, which was exposed on X-ray film at −80° C. with intensifying screen.

MDA-MB-435 [5] = assay: MDA-MB-435 xenograft tumor growth in nude mice; type: in vivo; details: 15 mg/kg into the abdominal cavity every other day, 12 times
Protocol: (§1) The human breast cancer cell line MDA-MB-435 was transplanted in the glandular fatty tissues of nude mice (Charles River Laboratory, Wilmington, Mass., USA) at 5 weeks (1×10^6 cells/mouse). 12 days later, the nude mice having tumor were grouped by 8. Kamebakaurin dissolved in 0.5% Tween 80 was administered into the abdominal cavity every other day at the concentrations of 1.5 and 15 mg/kg 12 times in total. The tumor size was measured for 23 days after the transplantation. The tumor size was calculated by “width 2 (square)×[…]/2=tumor volume (mm^3)”.

MDA-MB-435 [6] = assay: MDA-MB-435 xenograft metastasis to the lung in nude mice; type: in vivo; details: for Frequency (metastatic mice/total mice) / Minimum metastasis number-maximum metastasis number / number of metastasis in lung (median value) / Mean number of metastasis in lung: 35 days after transplantation; for Mean number of metastasis in lung: colonies >diameter 2 mm
Protocol: as §1
After 35 days from the transplantation, the lung of the mouse was excised and washed with water and fixed in Bouin's solution (SIGMA). The colonies metastasized to the surface of the lung (>diameter 2 mm) were counted under microscope and the mean values are shown in Table 2.

HIF-1α = HIF-1α expression induced under 1% oxygen in AGS cells expressing ZFP91; details: AGS cells expressing ZFP91, 1% oxygen
ZFP91 [7] = assay: TNF-α mediated ZFP91 expression in FLAG-ZFP91 expressing AGS cells, Western blotting; details: pre-treatment 30 minutes with KA 1, 10 ug/ml, celastrol 0.2, 2 ug/ml, parthenolide 0.5, 5 ug/ml, TNF-α 50 ng/ml 3 hours
Protocol: TNF-α (50 ng/ml) was treated thereto for 3 hours. Then, cell lysate was obtained, followed by Western blot analysis using a mouse anti-FLAG antibody.
FLAG-ZFP91 expressing AGS cells were pre-treated with the NF-κB inhibitors, kamebakaurin (KA), celastrol (Cel), parthenolide (PTN), for 30 minutes. TNF-α mediated ZFP91 expression was investigated by Western blotting using anti-ZFP91 antibody.

[8] = ZFP91 promoter containing both KB1 and KB2

Compound: OO [H2O2]
- ZFP91 promoter activity (ZFP91 promoter; stomach cancer cell line transfected with pGL3-ZFP91prom-LUC): significantly increased
- ZFP91 at mRNA level (ZFP91 [1]): not much increased
- ZFP91 at protein level (ZFP91 [1]): significantly increased time-dependently

Compound: ZFP91 siRNA 2: siRNA corresponding to nucleotides 2261-2279 of 3′ untranslated region of ZFP91, SEQ. ID. NO: 3 and NO: 4 (chain 1 GCGGCACACUUAUCUUCAA; chain 2 UUGAAGAUAAGUGUGCCGC; listed as RNA, chemistry not given here)
- ZFP91 expression (ZFP91 [2]): Suppression

Compound: TNF-α
- ZFP91 promoter activity (ZFP91 promoter; [8]): induced
- ZFP91 at mRNA level (ZFP91 [1]): not much increased
- ZFP91 at protein level (ZFP91 [1]): significantly increased time-dependently

Compound: C=C1C(=O)[C@@]23[C@H](O)C[C@@H]4C(C)(C)CC[C@H](O)[C@@]4(CO)[C@@H]2CC[C@@H]1[C@H]3O [kamebakaurin, Kamebakaurin]
- expression of PTPN11, SPIN, ECT2, EWSR1, MLLT4, MAGEA4, TNFAIP3 and ZFP91 (RT-PCR) [3]: down-regulated by at least two times
- expression levels of MAGEA4, TNFAIP3 and ZFP91 (Northern blotting) vs KA-non-treated control [4]: significantly different
- tumor growth (MDA-MB-435 [5]): significantly inhibited
- Frequency (metastatic mice/total mice) (MDA-MB-435 [6]; 1.5 mg/kg): 6/8
- Minimum metastasis number-maximum metastasis number (MDA-MB-435 [6]; 1.5 mg/kg): (0-6)
- number of metastasis in lung (median value) (MDA-MB-435 [6]; 1.5 mg/kg): 3
- Mean number of metastasis in lung (MDA-MB-435 [6]; 1.5 mg/kg): 3.3
- Frequency (metastatic mice/total mice) (MDA-MB-435 [6]; 15 mg/kg): 6/8
- Minimum metastasis number-maximum metastasis number (MDA-MB-435 [6]; 15 mg/kg): (0-4)
- number of metastasis in lung (median value) (MDA-MB-435 [6]; 15 mg/kg): 2
- Mean number of metastasis in lung (MDA-MB-435 [6]; 15 mg/kg): 1.8
- metastasis to the lung (MDA-MB-435 [6]; 15 mg/kg, nude mice, MDA-MB-435): significantly inhibited
- HIF-1α expression / accumulation (HIF-1α): suppressed; also recorded: inhibited; also recorded: significantly reduced
- TNF-α mediated ZFP91 expression (ZFP91 [7]): suppressed; also recorded: inhibited

Compound: CCCCCCCCCCCCCC(=O)O[C@@H]1[C@@H](C)[C@@]2(O)[C@@H](C=C(CO)C[C@]3(O)C(=O)C(C)=C[C@@H]23)[C@@H]2C(C)(C)[C@]12OC(C)=O [PMA]
- ZFP91 promoter activity (ZFP91 promoter; [8]): induced
- ZFP91 at mRNA level (ZFP91 [1]): not much increased
- ZFP91 at protein level (ZFP91 [1]): significantly increased time-dependently

Compound: IL-1β: pro-inflammatory cytokine, NF-κB activator
- ZFP91 promoter activity (ZFP91 promoter; [8]): induced
- ZFP91 at mRNA level (ZFP91 [1]): not much increased
- ZFP91 at protein level (ZFP91 [1]): significantly increased time-dependently

Compound: ZFP91 siRNA 1: siRNA corresponding to the nucleotide sequence 710-730 (NCBI, NM-053023) of ZFP91, SEQ. ID. NO: 1 and NO: 2 (chain 1 GGCAUUAGUAGUGAA; chain 2 UUCACUACUAAUGCCACCU; listed as RNA, chemistry not fully specified)
- ZFP91 expression (ZFP91 [2]): Suppression

Compound: [Cl-].[Cl-].[Co+2] [CoCl2]
- ZFP91 promoter activity (ZFP91 promoter): significantly increased
